Assay results from patent US9518051B2, “Pyrroloquinoline alkaloids as antimalarial agents and process for the preparation thereof” (Council of Scientific & Industrial Research, priority 2012, dated 2016).

Legend:
[1] = tested on: Plasmodium falciparum 3D7 (chloroquine sensitive strain); assay: Anti malarial activity in vitro on Plasmodium falciparum at erythrocyte stage; assay type: cell-based; conditions: compound in crude form
Protocol: In a preferred embodiment, the compound NCLite-M1 was tested for anti-malarial activity against a known parasite Plasmodium falciprum 3D7 was used, which is chloroquine sensitive strain and the results are tabulated herein.
This study was performed in vitro on Plasmodium falciparum at erythrocyte stage. The test protocol for testing antimalarial activity is from R. E. Desjardins, C. J. Canfield, J. D. Haynes and J. D. Chulay Antimicrob. Agents Chemother. 1979, 16, 710.
A known parasite 3D7 was used, which is Chloroquine sensitive strain. 2 mg of the compound NCLite-M1 which has a molecular weight of 326.35, was dissolved in 10 mL of EtOH and used as a stock. […] Further studies using highly pure compound and its soluble salts are planned.

melting point [°C]	Compound	further results
229 to 231	Nc1ncnc2c1ncn2Cc1nc2ccccc2c2cc[nH]c12 [Aplidiopsamine A]	
	O=c1c2ccccc2ncn1Cc1nc2ccccc2c2cc[nH]c12 [NCLite-M1, 3-((3H-pyrrolo[2,3-c]quinolin-4-yl)methyl)quinazolin-4(3H)-one]	lowest concentration at which the compound is active ([1]; P. falciparum 3D7): 2 µmol; inhibition at 25 µM ([1]; Plasmodium falciparum, concentration 25 μM, P. falciparum 3D7, erythrocyte stage, read-out: % inhibition by NCLite-M1): 19.5%; inhibition at 50 µM ([1]; Plasmodium falciparum, concentration 50 μM, P. falciparum 3D7, erythrocyte stage, read-out: % inhibition by NCLite-M1): 77.2%; inhibition at 75 µM ([1]; Plasmodium falciparum, concentration 75 μM, P. falciparum 3D7, erythrocyte stage, read-out: % inhibition by NCLite-M1): 89.4%; % inhibition by NCLite-M1 ([1]; concentration 2-5 μM, P. falciparum 3D7, erythrocyte stage): 17.6%
178 to 180	Cc1nc2cc(Cl)ccc2c2ccn(S(=O)(=O)c3ccccc3)c12 [Table 2, entry 2, 7-chloro-4-methyl-3-(phenylsulfonyl)-3H-pyrrolo[2,3-c]quinoline]	
233 to 235	N#Cc1ccc2nc(-c3ccccc3)c3ccccc3c2c1 [Table 2, entry 5, 6-phenylphenanthridine-2-carbonitrile]	
194 to 196	N#Cc1ccc2[nH]c(-c3ccccc3)cc2c1 [Table 2, entry 6, 2-phenyl-1H-indole-5-carbonitrile]	
143 to 145	Cc1nc2ccccc2c2ccn(S(=O)(=O)c3ccccc3)c12 [compound 3, 4-Methyl-3-(phenylsulfonyl)-3H-pyrrolo[2,3-c]quinoline]	
